Reference: US20070154580A1, “Antiviral Morinda Citrifolia L. Based Formulations and Methods of Administration” (priority 2005, published 2007)
Read-outs that look alike come from different tables or passages of the source.

Assays:
[1] = biological target: T1, Protease, CTSG (Cathepsin G) (Homo sapiens, UniProt P08311); experiment: Protease, CTSG (Cathepsin G) inhibition assay; format: biochemical; details: reference compound, concurrent run; read-out: Concurrent MIC IC50
T1 sequence (P08311 21-255): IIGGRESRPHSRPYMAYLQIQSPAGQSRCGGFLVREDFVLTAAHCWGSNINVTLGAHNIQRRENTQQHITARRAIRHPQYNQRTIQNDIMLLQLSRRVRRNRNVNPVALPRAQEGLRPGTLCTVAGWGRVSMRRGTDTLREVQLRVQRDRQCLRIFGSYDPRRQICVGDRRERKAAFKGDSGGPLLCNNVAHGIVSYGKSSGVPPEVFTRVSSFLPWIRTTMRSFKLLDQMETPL

[2] = biological target: T1, Protease, CTSG (Cathepsin G); details: reference compound, historical value; cited from earlier work

**Q.** What does the source list for CC(C)C[C@H](NC(=O)[C@@H](NC(=O)N[C@@H](Cc1ccccc1)C(=O)O)[C@@H]1CCN=C(N)N1)C(=O)N[C@H](C=O)Cc1ccccc1 [Chumostatin]?
**A.** IC50 [1]: 1.22 µM; IC50 [2]: 2.1 µM
